Measured values: US4861789A, “Dihydro-indene-amine-dihydrooxazoles” (Beecham Group plc, priority 1986, dated 1989)
Where a name gives a salt, the structure may show the parent alone. Read-outs that look alike come from different tables or passages of the source.

Columns and labels:
α2-Adrnoceptor = target: T1, α2-Adrnoceptor (Homo sapiens, UniProt P08913); experiment: α2-Adrenoceptor binding ([3H] Rauwolscine, human platelet membranes)
T1 construct: from tissue; host or cells: human platelet membranes
T1 sequence (P08913 1-465): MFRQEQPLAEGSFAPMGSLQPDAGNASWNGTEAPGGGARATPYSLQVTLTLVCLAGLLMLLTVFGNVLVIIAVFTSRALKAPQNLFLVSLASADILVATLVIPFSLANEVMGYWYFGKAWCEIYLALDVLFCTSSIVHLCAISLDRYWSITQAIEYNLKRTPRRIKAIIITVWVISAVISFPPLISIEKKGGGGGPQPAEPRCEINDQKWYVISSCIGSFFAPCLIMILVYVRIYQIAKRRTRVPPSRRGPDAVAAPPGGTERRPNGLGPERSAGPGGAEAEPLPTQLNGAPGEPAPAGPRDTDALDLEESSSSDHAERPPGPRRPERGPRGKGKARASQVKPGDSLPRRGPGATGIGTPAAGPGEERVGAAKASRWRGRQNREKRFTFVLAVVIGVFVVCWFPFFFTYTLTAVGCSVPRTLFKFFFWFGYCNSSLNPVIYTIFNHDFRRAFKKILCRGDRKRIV
Description: Human platelet membranes were incubated with [^3 H] Rauwolscine (0.5-1.0 nM) for 30 minutes at 30° C. with varying concetrates of the drug (0.1-10,000 nM). The binding assay was stopped by filtering and rinsing on GF B glass fibre filters.
Binding Affinity (Ki) was calculated using the Cheng-Prussoff equation.

[1] = system: Adrenaline-Exacerbated Glucose Intolerance; experiment: Reversal of Adrenaline-Exacerbated Glucose Intolerance in Mice; type: in vivo, CFLP female mice; details: 20 μmol/kg oral gavage, 30 min before glucose (1 g/kg) and adrenaline (300 μg/kg) s.c.; blood samples 0-120 min; versus water dosed control
Description: Reversal of Adrenaline-Exacerbated Glucose Intolerance in Mice CFLP female mice of about 25 g were fasted for 24 hours prior to receiving water (10 ml/kg) or the compound by oral gavage. Thirty minutes later, glucose (1 g/kg) and adrenaline (300 μg/kg) were injected subcutaneously. Blood samples for glucose analysis were taken serially from the tail of each mouse at 0, 30, 60, 90 and 120 minutes after dosing glucose and the results are expressed below as the percentage reduction in the area under the blood glucose curve; the compound treated groups being compared to the water dosed control group. Six mice were used in each treatment group.

In the case of `Clc1ccc2c(c1)CC(NC1=NCCO1)C2` (stereo not shown) [Example 4, 2-[2-(5-Chloro-2,3-dihydro-1H-indene)amino]4,5-dihydrooxazole], the Ki (α2-Adrnoceptor) is reported as 25 nM and the “% Reduction in area under Blood Glucose Curve” value (shortened to “% Reduction in area”) [1] is reported as 44%.
`c1ccc2c(c1)CC(NC1=NCCN1)C2` [Example 2, 2-[2-(2,3-Dihydro-1H-indene)amino)4,5-dihydroimidazole hydrochloride hemihydrate] showed a Ki (α2-Adrnoceptor) of 98 nM.
With `c1ccc2c(c1)CC(NC1=NCCS1)C2` [Example 9, 2-[2-(2,3-Dihydro-1H-indene)amino]4,5-dihydrothiazole] the Ki (α2-Adrnoceptor; [3H] Rauwolscine (0.5-1.0 nM), human platelet membranes, 30 minutes at 30° C., Cheng-Prussoff equation, read-out: Binding Affinity Ki) was 190 nM and the “% Reduction in area” value [1] was 33%.
For `Cc1ccc2c(c1)CC(NC1=NCCO1)C2` (stereo not shown) [Example 5, 2-[2-(2,3-dihydro-5-methyl-1H-indene)amino]4,5-dihydrooxazole], the Ki (α2-Adrnoceptor) was 25 nM.
`C[C@H]1c2ccccc2C[C@H]1NC1=NCCO1` (relative stereo) [Example 6, 2-[cis-2-(2,3-dihydro-1-methyl-1H-indene)amino]4,5-dihydrooxazole] gave a Ki (α2-Adrnoceptor) of 2 nM.
For `c1ccc2c(c1)CC(NC1=NCCO1)C2` [Example 1, 2-[2-(2,3-Dihydro-1H-indene)amino]4,5-dihydrooxazole], the Ki (α2-Adrnoceptor) was 1 nM and the “% Reduction in area” value [1] was 35%.
With `Clc1cccc2c1CC(NC1=NCCO1)C2` (stereo not shown) [Example 3, 2-[2-(4-Chloro-2,3-dihydro-1H-indene)amino]4,5-dihydrooxazole] the Ki (α2-Adrnoceptor) was 1 nM and the “% Reduction in area” value [1] was 42%.
`c1ccc2c(c1)CCC(NC1=NCCO1)C2` (stereo not shown) [Example 8, 2-[2-(1,2,3,4-Tetrahydronaphthyl)amino]4,5-dihydrooxazole] was tested, and the “% Reduction in area” value [1] was 18%.
In the case of `C[C@H]1c2ccccc2C[C@@H]1NC1=NCCO1` (relative stereo) [Example 7, 2-[Trans-2-(2,3-dihydro-1-methyl-1H-indene)amino]4,5-dihydrooxazole], the Ki (α2-Adrnoceptor) is reported as 2 nM.
